Measurements published in ChEMBL document CHEMBL1149734, “Molluscicidal acridone alkaloids from Angostura paniculata: isolation, structures, and synthesis” (J Nat Prod, 1992).
Values after ≈ are worked out from the molar mass of the structure shown. Active and inactive are the calls of the source. The rule behind the calls is not given here.

Tests used:
Biomphalaria glabrata = test: Molluscicidal activity against Biomphalaria glabrata; type: functional
HeLa = test: Cytotoxicity against human HeLa cells by MTT assay; type: functional, cell-based
BT-20 = test: Growth inhibition of human BT20 cells by MTT assay; type: functional, cell-based

SMILES | LC50 (Biomphalaria glabrata) [µg/mL] | IC50 (HeLa) [µg/mL] | growth inhibition (GI) (BT-20)
COc1cc2[nH]c3c(OC)c(OC)ccc3c(=O)c2c(O)c1OC [CUSPANINE] | 5 (≈ 15.1 µM) | 2.5 (≈ 7.55 µM) | Active
COc1cc2[nH]c3c(OC)c(OC)ccc3c(=O)c2c(OC)c1OC [CUSCULINE] | 20 (≈ 57.9 µM) | 8.5 (≈ 24.6 µM) | Active
